{
  "source": "paper PMC8274595",
  "about": "“Mechanism through Which Retrocyclin Targets Flavivirus Multiplication” (Journal of Virology, 2021)",
  "key": {"ZIKV MR766": {"tested_on": "ZIKV MR766", "assay": "Plaque assay, ZIKV MR766 virus production", "format": "cell-based, Zika virus (ZIKV)", "conditions": "additional cell line U251 used, supernatant 71 h postinfection"}, "JEV AT31 [1]": {"tested_on": "JEV AT31", "assay": "Viral titer reduction (plaque) assay, JEV in BHK-21 cells", "format": "cell-based, Japanese encephalitis virus (JEV)", "conditions": "MOI 0.1, six independent experiments"}, "ZIKV replicon": {"tested_on": "ZIKV replicon", "assay": "ZIKV replicon luciferase assay", "format": "cell-based, Zika virus (ZIKV)", "conditions": "BHK-21 cells, three independent experiments"}, "[2]": {"tested_on": "influenza virus hemagglutinin", "conditions": "cited from earlier work"}, "JEV H144A variant": {"tested_on": "JEV H144A variant", "format": "cell-based, Japanese encephalitis virus (JEV)", "conditions": "coadministration, BHK-21 cells, Western blot and plaque assay"}, "JEV Q258A variant": {"tested_on": "JEV Q258A variant", "format": "cell-based, Japanese encephalitis virus (JEV)", "conditions": "coadministration, BHK-21 cells, Western blot and plaque assay"}, "ZIKV NS2B-NS3pro": {"biological_target": "T1, ZIKV NS2B-NS3pro (Zika virus, UniProt A0A024B7W1)", "T1 construct": "the NS2B fragments were amplified by PCR; made in house; host or cells: E. coli BL21(DE3), pET28a", "assay": "Proteolytic activity of NS2B-NS3 protease", "format": "biochemical"}, "JEV AT31 [3]": {"tested_on": "JEV AT31", "assay": "Viral titer reduction (plaque) assay, JEV in U251 cells", "format": "cell-based, Japanese encephalitis virus (JEV)", "conditions": "MOI 0.1, six independent experiments"}, "ZIKV": {"tested_on": "ZIKV", "assay": "Time-of-addition assay, ZIKV (PRVABC 59 and MR766)", "format": "cell-based, Zika virus (ZIKV)"}, "MR766 strain": {"tested_on": "MR766 strain", "assay": "Time-of-addition assay, ZIKV MR766 posttreatment", "format": "cell-based, Zika virus (ZIKV)", "conditions": "Vero cells, RC-101 40 μM added 1 h postinfection for 71 h, MOI 0.1, plaque assay"}, "Vero cells": {"tested_on": "Vero cells", "conditions": "up to 100 μM, 72 h, CCK-8 assay"}, "DE mutant DIII": {"biological_target": "T2, DE mutant DIII (Japanese encephalitis virus, UniProt P27395, N661A/S658A/S659A/T657A)", "T2 construct": "DE loop mutant DIII (B), and bovine serum albumin (BSA) (C) were immobilized onto biosensors; pET-22b(+) normally gives a C-terminal His6); made in house", "assay": "Binding affinity, biolayer interferometry, DE mutant DIII", "design": "species or system Japanese encephalitis virus (JEV)", "conditions": "relative to WT DIII"}, "WT DIII": {"biological_target": "T3, WT DIII (Japanese encephalitis virus, UniProt P27395)", "T3 construct": "The WT DIII expression vector was constructed using pET-22b(+) and preserved in our laboratory; pET-22b(+) normally gives a C-terminal His6); made in house; host or cells: E. coli BL21(DE3), pET-22b(+)", "assay": "Binding affinity, biolayer interferometry, WT DIII", "design": "species or system Japanese encephalitis virus (JEV)", "conditions": "Octet QK, DIII immobilized, RC-101 200, 100, 50 nM, 1:1 binding model"}, "JEV NS3": {"tested_on": "JEV NS3", "format": "cell-based, Japanese encephalitis virus (JEV)", "conditions": "BHK-21 cells"}, "HIV gp120": {"tested_on": "HIV gp120", "conditions": "cited from earlier work"}, "ZIKV PRVABC 59": {"tested_on": "ZIKV PRVABC 59", "assay": "Plaque assay, ZIKV PRVABC 59 virus production", "format": "cell-based, Zika virus (ZIKV)", "conditions": "100 μM, additional cell line U251 used, supernatant 47 h postinfection"}, "[4]": {"tested_on": "herpes simplex virus 1/2 (HSV-1/2) glycoprotein", "conditions": "cited from earlier work"}, "JEV": {"tested_on": "JEV", "format": "cell-based, Japanese encephalitis virus (JEV)", "conditions": "50 μM RC-101, coadministration, BHK-21 cells"}, "JEV N154A variant": {"tested_on": "JEV N154A variant", "format": "cell-based, Japanese encephalitis virus (JEV)", "conditions": "coadministration, BHK-21 cells, Western blot and plaque assay"}, "DENV-2": {"tested_on": "DENV-2", "conditions": "cited from earlier work"}, "DENV NS2B-NS3 protease": {"tested_on": "DENV NS2B-NS3 protease", "conditions": "cited from earlier work"}},
  "note": "Read-outs that look alike come from different tables or passages of the source. Where no end group is shown, it is not given here.",
  "data": [
    {"molecule": "CC[C@H](C)[C@@H]1NC(=O)CNC(=O)[C@H](CCCCN)NC(=O)CNC(=O)[C@@H]2CSSC[C@H](NC1=O)C(=O)N[C@@H](CCCNC(=N)N)C(=O)N[C@H]1CSSC[C@H](NC(=O)[C@H](CCCNC(=N)N)NC(=O)[C@@H]3CSSC[C@H](NC(=O)[C@H]([C@@H](C)CC)NC1=O)C(=O)NCC(=O)N[C@@H](CCCNC(=N)N)C(=O)NCC(=O)N[C@@H]([C@@H](C)CC)C(=O)N3)C(=O)N[C@@H]([C@@H](C)CC)C(=O)N2", "note": "[RC-101, retrocyclin-101]", "values": [
      {"measurement": "virus production reduction", "setting": "ZIKV MR766; 12.5 μM", "result": "approximately 1 log unit"},
      {"measurement": "virus production reduction", "setting": "ZIKV MR766; 100 μM", "result": "approximately 7 log units"},
      {"measurement": "inhibition of JEV infection (viral titer)", "setting": "JEV AT31 [1]", "result": "robustly inhibited JEV infection"},
      {"measurement": "initial translation of replicon RNA (luciferase activity)", "setting": "ZIKV replicon; 2 h postelectroporation", "result": "little effect"},
      {"measurement": "luciferase signal (replication)", "setting": "ZIKV replicon; 48 h postelectroporation", "result": "appreciable reduction"},
      {"measurement": "binding affinity to influenza virus hemagglutinin", "setting": "[2]", "result": "high binding affinity"},
      {"measurement": "inhibition of infection by mutant virus", "setting": "JEV H144A variant", "result": "inhibited infections"},
      {"measurement": "sensitivity of mutant virus to RC-101", "setting": "JEV Q258A variant", "result": "likely had increased sensitivity"},
      {"measurement": "IC50", "setting": "ZIKV NS2B-NS3pro", "result": 7.2, "unit": "µM"},
      {"measurement": "inhibition of JEV infection (viral titer)", "setting": "JEV AT31 [3]", "result": "robustly inhibited JEV infection"},
      {"measurement": "approximate IC98 against ZIKV", "setting": "ZIKV; IC98 from dose-response against ZIKV (Fig. 1)", "result": "~50", "unit": "µM"},
      {"measurement": "suppression of viral titers, pretreatment", "setting": "ZIKV; Vero cells, RC-101 40 μM for 1 h before infection (-1 to 0 h), ZIKV MOI 0.1, plaque assay", "result": "no suppression of viral titers was observed"},
      {"measurement": "inhibitory effect, coadministration", "setting": "ZIKV; Vero cells, RC-101 40 μM with ZIKV MOI 0.1, 0 to 1 h, plaque assay", "result": "significant inhibitory effects"},
      {"measurement": "suppression of viral titers, virucidal treatment", "setting": "ZIKV; ZIKV (MOI 2.5) incubated with RC-101 40 μM at 37°C for 1 h, diluted 25-fold to infect Vero cells 1 h, plaque assay", "result": "no suppression of viral titers was observed"},
      {"measurement": "inhibition of infection, posttreatment", "setting": "MR766 strain", "result": "inhibited MR766 strain infection"},
      {"measurement": "cytotoxicity (cell viability)", "setting": "Vero cells", "result": "marginal response even at 100 μM"},
      {"measurement": "resistance of mutant virus to RC-101", "setting": "JEV DE mutant", "result": "robust resistance to RC-101 in all assays"},
      {"measurement": "resistance of mutant virus to RC-101", "setting": "JEV T410A variant", "result": "robust resistance to RC-101 in all assays"},
      {"measurement": "decrease of binding affinity, DE mutant versus WT DIII", "setting": "DE mutant DIII", "result": "1 order of magnitude"},
      {"measurement": "kinetic dissociation (Kd)", "setting": "WT DIII", "result": 0.000118, "unit": "s⁻¹"},
      {"measurement": "resistance of mutant virus to RC-101", "setting": "JEV H319A variant", "result": "resistance to RC-101 at the protein level and in the low-multiplication of infection (MOI) assay"},
      {"measurement": "expression of JEV NS3", "setting": "JEV NS3; JEV AT31 MOI 0.1, 1 h preinfection RC-101, lysates 23 h postinfection", "result": "inhibited in a dose-dependent manner"},
      {"measurement": "unprocessed polyprotein precursor (>180 kDa) expression", "setting": "JEV NS3; JEV AT31 MOI 0.1, RC-101 3.125 μM versus 0.78125 μM, 23 h postinfection", "result": "significantly higher"},
      {"measurement": "unprocessed polyprotein precursor (>180 kDa) presence", "setting": "JEV NS3; JEV AT31 MOI 0.1, RC-101 0.78125 and 3.125 μM, 23 h postinfection", "result": "present"},
      {"measurement": "unprocessed polyprotein precursor (>180 kDa) presence", "setting": "JEV NS3; JEV AT31 MOI 0.1, RC-101 12.5 and 50 μM, 23 h postinfection", "result": "decreased"},
      {"measurement": "binding affinity to HIV gp120", "setting": "HIV gp120", "result": "high binding affinity"},
      {"measurement": "virus production (plaques)", "setting": "ZIKV PRVABC 59", "result": "few plaques were found"},
      {"measurement": "binding affinity to HSV-1/2 glycoprotein", "setting": "[4]", "result": "high binding affinity"},
      {"measurement": "prM band (Western blot)", "setting": "JEV; MOI 0.1, 24 h postinfection", "result": "hardly detectable"},
      {"measurement": "viral titers decrease", "setting": "JEV; plaque assay", "result": "approximately 3 log units"},
      {"measurement": "inhibition of infection by mutant virus", "setting": "JEV N154A variant", "result": "inhibited infections"}
    ]},
    {"molecule": "GICRCICGRGICRCICGR (also: bicyclic or more (positions not given here)) [RC-1]", "values": [
      {"measurement": "inhibition of DENV-2 replication", "setting": "DENV-2", "result": "inhibit DENV-2 replication"},
      {"measurement": "inhibition of DENV NS2B-NS3 protease", "setting": "DENV NS2B-NS3 protease", "result": "reported to inhibit DENV NS2B-NS3 protease"}
    ]}
  ]
}
